Data reported in patent US20070276032A1, “Use of 8-Prenylnaringenin for Hormone Replacement Therapy” (priority 2003, published 2007).

Key:
[1] = Body weight, 8-PN racemic, 2S(−) 8-PN and estradiol hemihydrate in ovariectomized rats (Example 4); assay type: in vivo, Sprague-Dawley rats; settings: OVX rats, s.c. once a day, 28 days
Description: (§1) The aim of the study was to directly compare the effects of Prenylnaringenin (racemate) and 2S(−) 8-Prenylnaringenin to the effects of estradiol hemihydrate on bone mineral density and uterine weight on 3-month-old ovariectomized rats using identical formulations. In addition, the effects of estradiolhemihydrate in two vehicles (oily, aqueous) were examined for influence of formulations. The substances were administered subcutaneously(s.c.) seven days a week beginning the day after ovariectomy. At the end of the study, uterine weight and bone mineral density (BMD) of tibia were measured.
(§2) Forty-one female Sprague-Dawley rats, 12-14 weeks of age were randomized into six groups, 6-8 animals in each. Five groups were ovariectomized (OVX) and one group was sham-operated (SHAM). Treatments started on the day following operation and continued for 28 days. The animals were treated s.c. once a day seven times a week as follows. Group 1 (SHAM vehicle group) and group 2 (OVX vehicle group) were given the vehicle 30% hydroxypropyl-β-cyclodextrin (HP-β-CD). Groups 3 and 4 were administered 4 μg/kg/d of estradiol hemihydrate in vehicle benzyl benzoate/ricinus oil (B/R) and in vehicle HP-β-CD, respectively. Groups 5 and 6 were given 20 mg/kg/d of 2S(−)8-Prenylnaringenin and racemic 8-Prenylnaringenin, respectively, both in vehicle HP-β-CD. At the end of the study, left tibiae were excised for the ex vivo BMD […] were taken from all dosing solutions on the first and last day of use.
(§3) Vehicle 1 (used in the groups 1 and 2): 30% hydroxypropyl-β-cyclodextrin and 0.3% NaCl (w/v), 5% ethanol (v/v) in Aqua sterilisata, pH 7.4.
(§4) Vehicle 2 (used when preparing dosing solutions of the groups 4, 5 and 6): 30% hydroxypropyl-β-cyclodextrin and 0.3% NaCl (w/v) in Aqua sterilisata, pH 7.4.
(§5) Vehicle 3 (used when preparing a dosing solution of the group 3): benzyl benzoate/ricinus oil (B/R) 1+4, v/v.

ovariectomized rats [2] = assay: Trabecular density of proximal tibia, 8-PN racemic, 2S(−) 8-PN and estradiol hemihydrate in ovariectomized rats (Example 4); assay type: in vivo, Sprague-Dawley rats; settings: OVX rats, s.c. 28 days
Description: as §1, §2, §3, §4, §5

[3] = Body weight, estradiol in ovariectomized rats (Example 2); assay type: in vivo, Sprague-Dawley rats; settings: OVX rats, s.c. once a day, 5 days a week, 4 weeks
Description: (§6) Fifty-six female Sprague-Dawley rats, 12-14 weeks old, were used altogether. Forty-nine animals were randomized into seven groups. Group 8 (seven animals) administered with the third vehicle, benzyl alcohol/sesame oil, was added to the study thirteen days later. Seven groups were ovariectomized (OVX) and one group was sham-operated (SHAM). Animals were treated subcutaneously once a day, five days a week (Monday-Friday) as follows. Groups 1 (the SHAM group) and 2 (the OVX group) were given the vehicle benzylbenzoate/ricinus oil (0.5 ml/kg, B/R). […] Treatments started on the day following surgical operation and continued for 4 weeks. At the end of the study, ex vivo BMD of proximal tibia was measured and serum estradiol was determined. In addition, uterus was weighed.

ovariectomized rats [4] = assay: Relative uterine weight, estradiol in ovariectomized rats (Example 2); assay type: in vivo, Sprague-Dawley rats; settings: OVX rats; for Relative uterine weight: s.c. 5 days a week, 4 weeks
Description: as §6, with “weighed. Relative uterine weight was calculated as percentage of body weight” for “weighed.”

ovariectomized rats [5] = assay: Bone mineral density of proximal tibia, estradiol in ovariectomized rats (Example 2); assay type: in vivo, Sprague-Dawley rats; settings: OVX rats; for Total bone density / Trabecular density: proximal tibia, s.c. 5 days a week, 4 weeks
Description: as §6, with “weighed. Bone mineral density measurement was carried out by pQCT (XCT-960A, Stratec, Germany). The bone specimens were thawed before measurement. Six 1 mm-thick sections of the proximal tibia (2 mm below the epiphyseal growth plate) were scanned at 0.5 mm intervals using a voxel size of 0.148 mm. […] After bone densitometry, the specimens were wrapped back to saline saturated gauzes and stored at −20° C.” for “weighed.”

ovariectomized rats [6] = assay: Relative uterus weight, 8-PN racemic, 2S(−) 8-PN and estradiol hemihydrate in ovariectomized rats (Example 4); assay type: in vivo, Sprague-Dawley rats; settings: OVX rats, s.c. 28 days, calculated as percentage of body weight
Description: as §1, §2, §3, §4, §5

ERE-Luc = assay: Estrogenic activity in the estrogen reporter mouse ERE-Luc model, luciferase activity in organs (Example 5); assay type: in vivo, mice; settings: male ERE-Luc mice, i.p. 1.5 μg/kg, six hours after the injection
Description: In order to avoid experimental noise male animals were used.
Fourtyfive heterozygous male ERE-Luc mice of two months of age were fed with soy-free diet for two weeks before assigning them to each experimental group then all the mice were injected intraperitoneally (i.p.) with 250 μl of an oily solution containing the following compounds: • 1. Experimental group 1: vehicle • 2. Experimental group 2: 17β-estradiol at 1.5 μg/kg • 3. Experimental group 3: 2S(−)-8-PN at 30 mg/kg • 4. […] Experimental group 5: genistein at 30 mg/kg.
The treatment was carried out in experimental groups of three mice each and repeated three times (therefore numbers reflect the average of […] determinations on a total of 9 animals).
Six hours after the injection, mice were sacrificed by cervical dislocation and organs were dissected and frozen on dry ice. The following organs were analyzed for lucifererase activity by enzymatic assay: prostate, liver, bone, brain.
Data represent means ±standard deviation of N=9 animals per group.
Analysis of variance (ANOVA) for overall comparison was followed by Tukey test for paired comparisons. All statistical procedures were carried out with Systat and SAS (*P<0.05; **P<0.01).

[7] = 4 μg/kg/d in benzyl benzoate/ricinus oil (B/R)
[8] = 4.0 μpg/kg/d s.c. five times a week for four weeks

With `C[C@]12CC[C@@H]3c4ccc(O)cc4CC[C@H]3[C@@H]1CC[C@@H]2O` [estradiol hemihydrate, 17β-estradiol hemihydrate, reference compound] the “Body weight at The end (bw4b)” value ([1]; 4 μg/kg/d in HP-β-CD) was 285(9) g, the “The change in Body weight (bw4b-bw0)” value ([1]; 4 μg/kg/d in HP-β-CD) was 10(4) g and the “Body weight at The end (bw4b)” value [1, 7] was 291(9) g. For the same compound, the “The change in Body weight (bw4b-bw0)” value [1, 7] was 17(4) g, the “Trabecular density at left proximal tibia, Mean” value (ovariectomized rats [2]; 4 μg/kg/d in B/R) was 542 mg/cm3 and the “Trabecular density at left proximal tibia, Median” value (ovariectomized rats [2]; 4 μg/kg/d in B/R) was 577 mg/cm3. For the same compound, the “Trabecular density at left proximal tibia, Mean” value (ovariectomized rats [2]; 4 μg/kg/d in HP-β-CD) was 406 mg/cm3, the “Trabecular density at left proximal tibia, Median” value (ovariectomized rats [2]; 4 μg/kg/d in HP-β-CD) was 383 mg/cm3 and the Final body weight ([3]; 1.2 μg/kg/d in vehicle BA/S) was 288 (11) g. The “The change in body weight” value ([3]; 1.2 μg/kg/d in vehicle BA/S) was 28 (1) g, the Relative uterine weight (ovariectomized rats [4]; 1.2 μg/kg/d in BA/S) was 0.131 (0.008) % of body weight and the Total bone density (ovariectomized rats [5]; 1.2 μg/kg/d in BA/S) was 596 (18) mg/cm^3. The Trabecular density (ovariectomized rats [5]; 1.2 μg/kg/d in BA/S) was 386 (21) mg/cm^3, the “Relative uterus weight, Mean” value (ovariectomized rats [6]; 4 μg/kg/d in B/R) was 0.175 and the “Relative uterus weight, Median” value (ovariectomized rats [6]; 4 μg/kg/d in B/R) was 0.178. The “Relative uterus weight, Mean” value (ovariectomized rats [6]; 4 μg/kg/d in HP-β-CD) was 0.131 and the “Relative uterus weight, Median” value (ovariectomized rats [6]; 4 μg/kg/d in HP-β-CD) was 0.120.
With `C[C@]12CC[C@@H]3c4ccc(O)cc4CC[C@H]3[C@@H]1CC[C@@H]2O` [17β-estradiol] the Final body weight ([3]; 0.2 μg/kg/d in vehicle B/R) was 304 (6) g, the “The change in body weight” value ([3]; 0.2 μg/kg/d in vehicle B/R) was 51 (3) g and the Final body weight ([3]; 0.4 μg/kg/d in vehicle B/R) was 312 (6) g. For the same compound, the “The change in body weight” value ([3]; 0.4 μg/kg/d in vehicle B/R) was 53 (5) g, the Final body weight ([3]; 1.2 μg/kg/d in vehicle B/R) was 303 (6) g and the “The change in body weight” value ([3]; 1.2 μg/kg/d in vehicle B/R) was 48 (4) g. For the same compound, the Final body weight ([3]; 1.2 μg/kg/d in vehicle E/A) was 287 (8) g, the “The change in body weight” value ([3]; 1.2 μg/kg/d in vehicle E/A) was 33 (3) g and the Final body weight ([3]; 4.0 μg/kg/d in vehicle B/R) was 284 (7) g. The “The change in body weight” value ([3]; 4.0 μg/kg/d in vehicle B/R) was 31 (3) g, the “Luciferase activity, Prostate” value (ERE-Luc; controls 0.5) was 0.5 arbitrary units and the “Luciferase activity, Bone” value (ERE-Luc; controls 2.8) was 2.6 arbitrary units. The “Luciferase activity, Brain” value (ERE-Luc; controls 6.5) was 6.6 arbitrary units, the “Luciferase activity, Liver” value (ERE-Luc; controls 7.6) was 11.0 ** arbitrary units and the “effect on relative uterine weight” value (ovariectomized rats [4]; [8]) was “prevented the decrease in relative uterine weight and maintained it on the level of the SHAM vehicle group”. For the same compound, the Relative uterine weight (ovariectomized rats [4]; 0.2 μg/kg/d in B/R) was 0.045 (0.003) % of body weight, the Relative uterine weight (ovariectomized rats [4]; 0.4 μg/kg/d in B/R) was 0.054 (0.003) % of body weight and the Relative uterine weight (ovariectomized rats [4]; 1.2 μg/kg/d in B/R) was 0.110 (0.008) % of body weight. The Relative uterine weight (ovariectomized rats [4]; 1.2 μg/kg/d in E/A) was 0.114 (0.005) % of body weight, the Relative uterine weight (ovariectomized rats [4]; 4.0 μg/kg/d in B/R) was 0.159 (0.006) % of body weight and the “effect on total and trabecular bone mineral density of proximal tibia” value (ovariectomized rats [5]; [8]) was “prevented the OVX-induced decrease in total and trabecular bone mineral density of proximal tibia”. The Total bone density (ovariectomized rats [5]; 0.2 μg/kg/d in B/R) was 511 (17) mg/cm^3, the Trabecular density (ovariectomized rats [5]; 0.2 μg/kg/d in B/R) was 271 (17) mg/cm^3 and the Total bone density (ovariectomized rats [5]; 0.4 μg/kg/d in B/R) was 506 (8) mg/cm^3. For the same compound, the Trabecular density (ovariectomized rats [5]; 0.4 μg/kg/d in B/R) was 260 (13) mg/cm^3, the Total bone density (ovariectomized rats [5]; 1.2 μg/kg/d in B/R) was 577 (24) mg/cm^3 and the Trabecular density (ovariectomized rats [5]; 1.2 μg/kg/d in B/R) was 376 (31) mg/cm^3. The Total bone density (ovariectomized rats [5]; 1.2 μg/kg/d in E/A) was 577 (22) mg/cm^3, the Trabecular density (ovariectomized rats [5]; 1.2 μg/kg/d in E/A) was 366 (24) mg/cm^3 and the Total bone density (ovariectomized rats [5]; 4.0 μg/kg/d in B/R) was 637 (13) mg/cm^3. For the same compound, the Trabecular density (ovariectomized rats [5]; 4.0 μg/kg/d in B/R) was 435 (21) mg/cm^3.
